“Also recorded” adds a separate entry of the source. Read-outs that look alike come from different tables or passages of the source.
Experiments:
LRRK2 WT = molecular target: T1, LRRK2 WT (Homo sapiens, UniProt Q5S007); assay: LRRK2 wild-type kinase activity assay (LanthaScreen TR-FRET); type: biochemical; details: 1 nM LRRK2 WT, 1.3 mM ATP, 3.5 h at 30° C.; n≥2 tests
T1 construct: comprises residue 970 to 2527 of the full length human wild-type LRRK2 kinase; purchased Invitrogen (Life Technologies Corporation)
Procedure, shortened: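 TR-FRET measured phosphorylation of fluorescein-ERM LRRKtide by human LRRK2 residues 970–2527, wild-type or G2019S, detected with a terbium anti-phospho-LRRKtide antibody. The 520/495 nm ratio was normalized to uninhibited and inhibitor controls. IC50 came from a Hill fit, log-averaged over independent experiments.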

[1] = Hepatocyte intrinsic clearance assay; type: in vitro ADME, human; details: human, pooled donor, cryopreserved hepatocytes, pH 7.4, 0.1 μM, 2 h at 37° C., 1×10^6 hepatocytes/mL; * measured on 3 separate occasions, ** on a single occasion
Procedure, shortened: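 Test compound at 0.1 μM final (0.05% organic) incubated 2 h at 37° C with shaking in supplemented Leibovitz L-15 medium (pH7.4), 1×10^6 hepatocytes/mL final. Samples taken 1–120 min, quenched in acetonitrile, analyzed by LC-MS/MS. CLint derived from slope of % remaining versus time.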

GSH adduct screening = type: in vitro ADME, human; details: 1 μM, 3 h at 37° C., HLM 0.5 mg/mL, NADPH, with and without GSH
Experimental: Test compounds (final concentration 1 μM, 0.25% organic) were incubated for 3 h at 37° C. in commercially sourced, pooled donor, human liver microsomes (HLM, final concentration 0.5 mg/mL) with and without addition of glutathione (GSH; final concentration […]). The metabolic reaction was initiated by addition of microsomal solution to the mixture of cofactor NADPH (final concentration 1 mM), test compound and GSH. After 3 h of incubation in a water bath at 37° C., the reaction was stopped by addition of 0.2% formic acid in acetonitrile, followed by mixing and centrifugation (16000 g for 5 minutes). Supernatant was diluted (1:1) with HPLC water then analyzed by liquid chromatography (LC)-quadrupole time-of-flight mass spectrometry (QTOF-MS). Accurate mass MS and MS/MS spectra from samples with GSH and without GSH, respectively, were compared to identify detectable GSH and/or cysteine related adducts.

[2] = Rat B/P (brain disposition); type: in vivo, male Sprague-Dawley rats; details: for concentration at 1 h / Kp at 1 h / Kp uu at 1 h: male, Sprague-Dawley, time point 1.0 h; for Kp at 1 h / Kp uu at 1 h: brain/plasma; for Kp at 1 h: n = 3; for Kp uu at 1 h: po
Procedure, shortened: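 Male Sprague-Dawley rats (n=3, standard body weight) were used to assess brain disposition. Plasma and brain homogenates underwent protein precipitation with acetonitrile containing internal standard, then LC-MS/MS measurement using an optimized method. Compound levels were quantified against matrix-matched calibration standards, and brain Kp was calculated as total brain concentration divided by total plasma concentration.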

[3] = Free fraction in plasma (equilibrium dialysis); type: in vitro ADME, male Sprague-Dawley rat; details: rat plasma, 1 μM, 5 h at 37° C.
Procedure, shortened: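 Equilibrium dialysis (12-14 kDa membrane) of male Sprague-Dawley rat or female Gottingen minipig plasma, or rat brain homogenate diluted 1:4, against 100 mM sodium phosphate pH 7.4, compound at 1 μM nominal (≤0.5% DMSO), 5 h at 37 °C. LC/MS-MS quantification; percent free calculated, with dilution factor 4 for brain.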

T1 sequence (Q5S007 970-2527): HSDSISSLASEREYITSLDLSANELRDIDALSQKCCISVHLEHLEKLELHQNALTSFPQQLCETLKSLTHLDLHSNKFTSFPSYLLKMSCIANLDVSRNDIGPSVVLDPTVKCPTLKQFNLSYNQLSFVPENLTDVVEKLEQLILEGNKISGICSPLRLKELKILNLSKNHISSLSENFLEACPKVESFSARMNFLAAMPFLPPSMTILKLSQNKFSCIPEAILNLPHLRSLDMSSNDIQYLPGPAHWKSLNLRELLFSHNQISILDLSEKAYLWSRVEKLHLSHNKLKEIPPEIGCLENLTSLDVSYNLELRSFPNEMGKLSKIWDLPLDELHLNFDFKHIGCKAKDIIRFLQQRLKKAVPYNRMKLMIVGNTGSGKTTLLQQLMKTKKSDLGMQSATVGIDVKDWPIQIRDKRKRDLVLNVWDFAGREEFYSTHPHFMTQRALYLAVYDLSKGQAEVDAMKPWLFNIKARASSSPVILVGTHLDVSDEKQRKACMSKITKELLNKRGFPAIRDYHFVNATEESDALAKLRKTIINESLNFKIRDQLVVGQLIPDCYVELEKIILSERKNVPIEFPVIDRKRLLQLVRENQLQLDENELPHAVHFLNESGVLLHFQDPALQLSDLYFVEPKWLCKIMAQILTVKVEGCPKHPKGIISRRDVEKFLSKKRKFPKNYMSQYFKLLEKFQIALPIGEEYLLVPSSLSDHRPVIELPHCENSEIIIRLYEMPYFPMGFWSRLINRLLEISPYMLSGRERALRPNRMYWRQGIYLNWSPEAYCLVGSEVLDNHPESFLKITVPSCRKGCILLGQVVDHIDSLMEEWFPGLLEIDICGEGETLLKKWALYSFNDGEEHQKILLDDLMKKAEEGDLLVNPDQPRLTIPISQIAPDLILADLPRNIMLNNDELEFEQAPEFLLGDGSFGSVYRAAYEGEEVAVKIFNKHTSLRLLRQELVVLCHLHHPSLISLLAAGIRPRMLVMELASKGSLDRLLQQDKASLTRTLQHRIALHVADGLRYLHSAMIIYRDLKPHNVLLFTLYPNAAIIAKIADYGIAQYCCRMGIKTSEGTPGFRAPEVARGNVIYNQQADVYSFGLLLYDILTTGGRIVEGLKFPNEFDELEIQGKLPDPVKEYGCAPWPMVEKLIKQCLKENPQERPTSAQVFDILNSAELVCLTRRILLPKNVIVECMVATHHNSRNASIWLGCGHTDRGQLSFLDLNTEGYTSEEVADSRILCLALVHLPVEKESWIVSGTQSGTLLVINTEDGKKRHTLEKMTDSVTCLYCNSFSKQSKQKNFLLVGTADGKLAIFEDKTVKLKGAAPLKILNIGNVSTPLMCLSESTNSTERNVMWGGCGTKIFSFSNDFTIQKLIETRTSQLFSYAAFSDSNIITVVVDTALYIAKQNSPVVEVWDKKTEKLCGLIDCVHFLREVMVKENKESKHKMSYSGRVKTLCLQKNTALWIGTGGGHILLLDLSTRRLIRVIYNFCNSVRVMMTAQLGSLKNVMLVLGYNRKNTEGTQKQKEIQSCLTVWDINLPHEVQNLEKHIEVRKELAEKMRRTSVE

Question: Which IC50 (LRRK2 WT) does the source give for [2H]C([2H])([2H])c1c2c(nn1C1CCOCC1)OCCCn1nc(Cl)c3cnc(nc31)N2 [Example 13, 8-Chloro-3-(methyl-d3)-2-(tetrahydro-2H-pyran-4-yl)-2,4,12,13-tetrahydro-11H-5,7-(azenometheno)dipyrazolo[3,4-b:5′,1′-g][1]oxa[4,6,8]triazacycloundecine] here?
Answer: 9.6 nM

Question: What about the CLint scaled at 0.1 μM [1] of the same compound?
Answer: 6 mL/min/kg

Question: And the “Adduct detected in GSH supplemented HLMs” value (GSH adduct screening)?
Answer: did not form GSH adduct; also recorded: None detected

Question: What about the “extent of brain penetration, classified from rat brain Kp,uu values” ([2]; Table 8, brain free fraction from brain slice model) of the same compound?
Answer: moderately high brain penetrant

Question: What about the concentration at 1 h ([2]; brain, oral gavage 1 mg/kg, Table 8, read-out: Total brain concentration) of the same compound?
Answer: 130 ± 27 ng/mL

Question: And the concentration at 1 h ([2]; brain, oral gavage 1 mg/kg, mean ± stdev, n = 3, read-out: Total brain concentration)?
Answer: 130 ± 27 ng/g

Question: What about the concentration at 1 h ([2]; brain, oral gavage 3 mg/kg, Table 8, read-out: Total brain concentration) of the same compound?
Answer: 597 ± 169 ng/mL

Question: What about the concentration at 1 h ([2]; brain, oral gavage 3 mg/kg, mean ± stdev, n = 3, read-out: Total brain concentration) of the same compound?
Answer: 597 ± 169 ng/g

Question: And the concentration at 1 h ([2]; brain, oral gavage 10 mg/kg, Table 8, read-out: Total brain concentration)?
Answer: 2030 ± 462 ng/mL

Question: What about the concentration at 1 h ([2]; brain, oral gavage 10 mg/kg, mean ± stdev, n = 3, read-out: Total brain concentration) of the same compound?
Answer: 2030 ± 462 ng/g

Question: And the Kp at 1 h ([2]; oral gavage 1 mg/kg, mean ± stdev)?
Answer: 1.76 ± 0.04

Question: And the Kp at 1 h ([2]; oral gavage 3 mg/kg, mean ± stdev)?
Answer: 1.74 ± 0.1

Question: And the Kp at 1 h ([2]; oral gavage 10 mg/kg, mean ± stdev)?
Answer: 1.3 ± 0.22

Question: And the Kp uu at 1 h ([2]; 1 mg/kg, oral gavage 1 mg/kg, brain free fraction from rat brain slice model)?
Answer: 0.54 ± 0.01

Question: And the Kp uu at 1 h ([2]; 1 mg/kg, oral gavage 1 mg/kg, fubrain from brain homogenate)?
Answer: 0.38 ± 0.01

Question: And the Kp uu at 1 h ([2]; 3 mg/kg, oral gavage 3 mg/kg, brain free fraction from rat brain slice model)?
Answer: 0.54 ± 0.03

Question: And the Kp uu at 1 h ([2]; 3 mg/kg, oral gavage 3 mg/kg, fubrain from brain homogenate)?
Answer: 0.38 ± 0.02

Question: And the Kp uu at 1 h ([2]; 10 mg/kg, oral gavage 10 mg/kg, brain free fraction from rat brain slice model)?
Answer: 0.4 ± 0.07

Question: What about the Kp uu at 1 h ([2]; 10 mg/kg, oral gavage 10 mg/kg, fubrain from brain homogenate) of the same compound?
Answer: 0.28 ± 0.05

Question: What about the concentration at 1 h ([2]; plasma, oral gavage 1 mg/kg, mean ± stdev, n = 3, read-out: Total plasma concentration) of the same compound?
Answer: 74 ± 17 ng/mL

Question: What about the concentration at 1 h ([2]; plasma, oral gavage 3 mg/kg, mean ± stdev, n = 3, read-out: Total plasma concentration) of the same compound?
Answer: 340 ± 78 ng/mL

Question: What about the concentration at 1 h ([2]; plasma, oral gavage 10 mg/kg, mean ± stdev, n = 3, read-out: Total plasma concentration) of the same compound?
Answer: 1640 ± 655 ng/mL

Question: What about the “fuplasma (% free)” value [3] of the same compound?
Answer: 32.0 % free

From patent US11780851B2, “LRRK2 inhibitors” (H. Lundbeck A/S, priority 2021, dated 2023)
